Data reported in US20220000157A1, “MOUTH-COATING FEEL ENHANCER” (AJINOMOTO CO., INC., priority 2019, published 2022).

System: panel of 3 experts
Assay: Sensory evaluation of strength of mouth-coating feel of mayonnaise, single compounds in ethanol (Experimental Example 14)
Format: in vivo
Settings: for mouth-coating feel (in words): Table 20
Excerpt: as a Positive Control, General Commercially Available mayonnaise (manufactured by Ajinomoto Co., Inc., trade name “Pure Select (registered trade mark) mayonnaise”, oil and fat content: 73%) added with ethanol (manufactured by Japan Alcohol Corporation) (0.001 wt %) was used.
As a negative control, commercially available mayonnaise (manufactured by Ajinomoto Co., Inc., trade name “Pure Select (registered trade mark) KOKUUMA (registered trade mark) 65% Calorie Cut”, oil and fat content: 23%) with a smaller oil and fat content as compared with positive control mayonnaise and added with ethanol (manufactured by Japan Alcohol Corporation) (0.001 wt %) was used.
Given amounts of β-caryophyllene, β-caryophyllene oxide, clovanediol, (1R,3Z,5R,9S)-4,11,11-trimethyl-8-methylenebicyclo[7.2.0]undec-3-en-5-ol, (1R,4R,5R,9S)-4,11,11-trimethyl-8-methylenebicyclo[7.2.0]undecane-4,5-diol, clovanediol-3-monoacetate, clovanediol diacetate, clovanediol-3-monoisovalerate, α-pinene, α-pinene oxide, limonene, limonene oxide, α-terpineol (clovanediol, (1R,3Z,5R,9S)-4,11,11-trimethyl-8-methylenebicyclo[7.2.0]undec-3-en-5-ol, (1R,4R,5R,9S)-4,11,11-trimethyl-8-methylenebicyclo[7.2.0]undecane-4,5-diol, clovanediol-3-monoacetate, clovanediol diacetate and clovanediol-3-monoisovalerate used were those obtained in the above-mentioned Synthetic Examples and others used were manufactured by Sigma-Aldrich) were dissolved in ethanol (manufactured by Japan Alcohol Corporation), the ethanol (0.001 wt %) was added to the commercially available mayonnaise used for preparation of the above-mentioned negative control, and the obtained mayonnaise was used as an evaluation sample. The amounts of β-caryophyllene, β-caryophyllene oxide, clovanediol, (1R,3Z,5R,9S)-4,11,11-trimethyl-8-methylenebicyclo[7.2.0]undec-3-en-5-ol, (1R,4R,5R,9S)-4,11,11-trimethyl-8-methylenebicyclo[7.2.0]undecane-4,5-diol, clovanediol-3-monoacetate, clovanediol diacetate, clovanediol-3-monoisovalerate, α-pinene, α-pinene oxide, limonene, limonene oxide, α-terpineol dissolved in ethanol were each adjusted to fall within the range of 0.01-1 ppm with respect to mayonnaise, as shown in the following Table 20.
For the evaluation of the strength of the mouth-coating feel, a panel of 3 experts ate each mayonnaise of positive control, negative control and evaluation sample, and graded the evaluation samples in 0.1 point increments in the range of 0.0 to 5.0 points, with the positive control being 5.0 points and the negative control being 0.0 point.

[1] = concentration 1 ppm with respect to mayonnaise
[2] = concentration 0.01 ppm with respect to mayonnaise
[3] = concentration 0.1 ppm with respect to mayonnaise

Structure (SMILES) | mouth-coating feel (in words) | strength of mouth-coating feel [1] | strength of mouth-coating feel [2] | strength of mouth-coating feel [3]
C=C1CC[C@@H](O)/C(C)=C\C[C@@H]2[C@@H]1CC2(C)C [(1R,3Z,5R,9S)-4,11,11-trimethyl-8-methylenebicyclo[7.2.0]undec-3-en-5-ol] | enhanced | 3.0 points |  | 
C=C1CC[C@@H](O)[C@](C)(O)CC[C@@H]2[C@@H]1CC2(C)C [(1R,4R,5R,9S)-4,11,11-trimethyl-8-methylenebicyclo[7.2.0]undecane-4,5-diol] | enhanced | 3.3 points |  | 
CC(=O)O[C@H]1CC(C)(C)[C@@H]2CC[C@]3(C)C[C@]12CC[C@H]3OC(C)=O [clovanediol diacetate] | enhanced | 3.2 points |  | 
CC(=O)O[C@H]1CC(C)(C)[C@@H]2CC[C@]3(C)C[C@]12CC[C@H]3O [clovanediol-3-monoacetate] | enhanced | 3.0 points |  | 
CC(C)CC(=O)O[C@H]1CC(C)(C)[C@@H]2CC[C@]3(C)C[C@]12CC[C@H]3O [clovanediol-3-monoisovalerate] | enhanced | 3.2 points |  | 
CC1(C)C[C@H](O)[C@]23CC[C@@H](O)[C@](C)(CC[C@@H]12)C3 [clovanediol] | enhanced | 3.1 points |  | 
C=C(C)C1CCC2(C)OC2C1 (stereo not drawn) [limonene oxide] | enhanced | 2.8 points |  | 
C=C(C)[C@H]1CC=C(C)CC1 [limonene, reference compound] |  | 0.0 points |  | 
CC1(C)C2CC3OC3(C)C1C2 (stereo not drawn) [α-pinene oxide] | enhanced | 3.3 points |  | 
CC1=CCC2CC1C2(C)C (stereo not drawn) [α-pinene, reference compound] |  | 0.6 points |  | 
CC1=CCC(C(C)(C)O)CC1 (stereo not drawn) [α-terpineol] | enhanced | 2.0 points |  | 
C=C1CC[C@H]2O[C@]2(C)CC[C@@H]2[C@@H]1CC2(C)C [β-caryophyllene oxide] | enhanced | 3.6 points | 1.5 points | 2.6 points
C=C1CC/C=C(\C)CC[C@@H]2[C@@H]1CC2(C)C [β-caryophyllene, reference compound] |  | 0.1 points | 0.0 points | 0.0 points
